In patent publication US10898469B2, “Imidazolylamide derivative” (Sumitomo Dainippon Pharma Co., Ltd., priority 2016, dated 2021):
Where two headings read alike, the source gives them in different places.

Tests used:
Type in all cases: cell-based, human
HCT-116 cells [1] = assay: Inhibition test for sphere-forming ability of cancer cells (Test Example 1), HCT-116; details: for IC50: HCT-116 cells, concentration for 50% inhibition of cell proliferation, read-out: IC50 (μmol/L) HCT-116 (Sphere IC50 value); for inhibitory effect on the sphere-forming ability of cancer cells: Test Example 1, summary in words, cell line not given (HCT-116, HT-29, FaDu tested)
Procedure, shortened: (§1)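 Cells were seeded at 350-800 cells/well in ultra-low-attachment plates in serum-free DMEM/F12 with 2% B27, 20 ng/mL EGF, 10 ng/mL bFGF and 5 μg/mL insulin. Compounds were added at 0.1% final DMSO for 4 days. Viable cells were read by CellTiter-Glo luminescence to give Sphere IC50 (μmol/L).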

HT-29 cells [2] = assay: Inhibition test for sphere-forming ability of cancer cells (Test Example 1), HT-29; details: concentration for 50% inhibition of cell proliferation, read-out: IC50 (μmol/L) HT-29 (Sphere IC50 value)
Procedure, shortened: as §1

HCT-116 cells [3] = assay: Inhibition test for sphere-forming ability of cancer cells in the presence of BSA (Test Example 2), HCT-116; details: for IC50: HCT-116 cells, in the presence of 5% BSA, cultured 4 days; for inhibitory effect on the sphere-forming ability of cancer cells: Test Example 2, in the presence of 5% BSA, summary in words, cell line not given (HCT-116, HT-29, FaDu tested)
Description: (§2) Human colorectal cancer-derived HCT-116 cells, human colon-adenocarcinoma-derived HT-29 cells, and human pharyngeal cancer-derived FaDu cells were available from American Type Culture Collection (ATCC). HCT-116 cells and HT-29 cells were cultured at 37° C. under 5% CO2 using the McCoy's 5a medium containing 10% fetal bovine serum (FBS) and 1% penicillin/streptomycin, and FaDu cells were cultured at 37° C. under 5% CO2 using the MEM medium containing 10% FBS, 1% non-essential amino acid, 1% sodium pyruvate, 5% bovine serum albumin (BSA), and 1% penicillin/streptomycin. HCT-116 cells, HT-29 cells, and FaDu cells were seeded in a 384 Well Black Clear Bottom Ultra-Low Attachment Microplate (Corning Cat. No. 3827) in an amount of 350-800 cells/well using the DMEM/F12 medium containing 2% B27 supplement (GIBCO), 20 ng/mL epidermal growth factor (EGF) (peprotech), 10 ng/mL basic fibroblast growth factor (bFGF) (peprotech), 5 μg/mL insulin (Sigma), 5% bovine serum albumin (BSA), and 1% penicillin/streptomycin. Each test compound was added into each well to adjust the final concentration of DMSO to 0.1%, and the cells were cultured for 4 days. The number of viable cells in each well was then measured with CellTiter-Glo® Luminescent Cell Viability Assay (Promega) to calculate the concentration of each test compound for 50% inhibition of cell proliferation (Sphere IC50 value; μmol/L).
(§3) The experiment of Test Example 2 was performed for each compound of each Example.
(§4) The concentration of each test compound for 50% inhibition of cell proliferation (Sphere IC50 value; μmol/L) is shown in the following Table.

HT-29 cells [4] = assay: Inhibition test for sphere-forming ability of cancer cells in the presence of BSA (Test Example 2), HT-29; details: in the presence of 5% BSA, cultured 4 days
Description: as §2, §3, §4

FaDu cells = assay: Inhibition test for sphere-forming ability of cancer cells (Test Example 1), FaDu; details: concentration for 50% inhibition of cell proliferation, read-out: IC50 (μmol/L) FaDu (Sphere IC50 value)
Procedure, shortened: as §1

IC50 (HCT-116 cells [1]) [µmol/L]	IC50 (HT-29 cells [2]) [µmol/L]	IC50 (HCT-116 cells [3]) [nM]	IC50 (HT-29 cells [4]) [nM]	IC50 (HCT-116 cells [1]; Homo sapiens) [µmol/L]	IC50 (HT-29 cells [2]; Homo sapiens) [µmol/L]	IC50 (FaDu cells; Homo sapiens) [µmol/L]	IC50 (HCT-116 cells [3]; Homo sapiens, HCT-116, 96 h) [nM]	IC50 (HT-29 cells [4]; Homo sapiens, 96 h) [nM]	IC50 (FaDu cells) [µmol/L]	SMILES	inhibitory effect on the sphere-forming ability of cancer cells (HCT-116 cells [1])	inhibitory effect on the sphere-forming ability of cancer cells (HCT-116 cells [3])
0.1	0.2	> 10000	6140							O=C(Nc1cn(Cc2cccc(Cl)c2)cn1)c1cnc2ccccc2c1 [Example 138]	particularly potent inhibitory effect	
				0.08	< 0.01	0.06	640			N#Cc1ccc(/C=C/C(=O)Nc2cn(Cc3cccc(Cl)c3)cn2)cc1 [Example 22]	particularly potent inhibitory effect	particularly potent inhibitory effect
				7.87	4.07		> 10000	5960		COc1ccc(C(=O)Nc2cn(Cc3cccc(Cl)c3)c(C)n2)cc1OC [Example 102]		
				0.22	0.03	0.03	910			CC(=O)Nc1ccc(/C=C/C(=O)Nc2cn(Cc3cccc(Cl)c3)cn2)cc1 [Example 9, (2E)-3-[4-(acetylamino)phenyl]-N-[1-(3-chlorobenzyl)-1H-imidazol-4-yl]prop-2-enamide]	particularly potent inhibitory effect	
0.94	0.29	> 10000	6400							O=C(Nc1cn(Cc2cccc(C(F)(F)F)c2)cn1)c1ccc2ncccc2c1 [Example 183]		
				> 10	8.71		9210	540		COC(=O)c1ccc(/C=C/C(=O)Nc2cn(Cc3cccc(C(F)(F)F)c3)cn2)cn1 [Example 131, Methyl 5-[(1E)-3-oxo-3-({1-[3-(trifluoromethyl)benzyl]-1H-imidazol-4-yl}amino)prop-1-en-1-yl]picolinate]		
0.05	< 0.01	70	70							O=C(Nc1cn(Cc2cccc(C(F)(F)F)c2)cn1)c1cnc2cnccc2c1 [Example 192]	particularly potent inhibitory effect	particularly potent inhibitory effect
0.81	0.57	> 10000	6130							O=C(Nc1cn(Cc2cccc(Cl)c2)cn1)c1ccc2ncccc2c1 [Example 137]		
0.72	0.63	5540	850							O=C(Nc1cn(Cc2cccc(C(F)(F)F)c2)cn1)c1cnc2ncccc2c1 [Example 188]		
				0.38	0.29	0.11	2140			Cn1cc(C(=O)Nc2cn(Cc3cccc(C(F)(F)F)c3)cn2)ccc1=O [Example 242, 1-Methyl-6-oxo-N-{1-[3-(trifluoromethyl)benzyl]-1H-imidazol-4-yl}-1,6-dihydropyridine-3-carboxamide]	particularly potent inhibitory effect	
8.49	6.04	> 10000	6270							O=C(Nc1cccnc1)c1cn(Cc2cccc(Cl)c2)cn1 [Example 264]		
				1	0.83		6500	5130		O=C(Nc1cn(Cc2cccc(C(F)(F)F)c2)cn1)c1ccc(NCCO)nc1 [Example 248, 6-[(2-Hydroxyethyl)amino]-N-{1-[3-(trifluoromethyl)benzyl]-1H-imidazol-4-yl}nicotinamide]		
0.07	0.08	570	70							O=C(Nc1ccc(CO)cc1)c1cn(Cc2cc(F)c(F)c(F)c2)cn1 [Example 253]	particularly potent inhibitory effect	particularly potent inhibitory effect
				6.63	1.96		8380	6330		C=Cc1ncc(C(=O)Nc2cn(Cc3cccc(C(F)(F)F)c3)cn2)cc1OC [Example 100]		
				0.49	0.29		2420	490		O=C(Nc1cn(Cc2cccc(C(F)(F)F)c2)cn1)c1ccc(NCC(F)(F)F)nc1 [Example 249]		
				0.84	0.65	< 0.01	90			COc1ccc(/C=C/C(=O)Nc2cn(Cc3cccc(C(F)(F)F)c3)cn2)cc1O [Example 31, (E)-3-(3-Hydroxy-4-methoxyphenyl)-N-(1-(3-(trifluoromethyl)benzyl)-1H-imidazol-4-yl)acrylamide]		particularly potent inhibitory effect
6.39	4.17	> 10000	4880							COc1cc(C(=O)Nc2cn(Cc3cccc(C(F)(F)F)c3)cn2)cnc1Cl [Example 228]		
				8.22	6.37		> 10000	6460		COC(=O)c1ccc(OCC(=O)Nc2cn(Cc3cc(F)c(F)c(F)c3)cn2)cn1 [Example 132, Methyl 5-(2-oxo-2-{[1-(3,4,5-trifluorobenzyl)-1H-imidazol-4-yl]amino}ethoxy)picolinate]		
				0.06	0.01	< 0.01	590			COc1ccc(/C=C/C(=O)Nc2cn(Cc3cccc(Cl)c3)cn2)cc1OCCO [Example 33, (2E)-N-[1-(3-chlorobenzyl)-1H-imidazol-4-yl]-3-[3-(2-hydroxyethoxy)-4-methoxyphenyl]prop-2-enamide]	particularly potent inhibitory effect	particularly potent inhibitory effect
				0.61	0.47	< 0.01	370			COc1ccc(/C=C/C(=O)Nc2cn(Cc3cccc(Cl)c3)cn2)cc1O [Example 23, (E)-N-(1-(3-Chlorobenzyl)-1H-imidazol-4-yl)-3-(3-hydroxy-4-methoxyphenyl)acrylamide]		particularly potent inhibitory effect
0.07		610							0.07	COc1ccc(C(=O)Nc2cn(Cc3ccc(F)c(Cl)c3)cn2)cc1OC [Example 160]	particularly potent inhibitory effect	
				5.79	0.69	0.67	6400			CS(=O)(=O)Nc1ccc(/C=C/C(=O)Nc2cn(Cc3cccc(Cl)c3)cn2)cc1 [Example 4, (E)-N-(1-(3-Chlorobenzyl)-1H-imidazol-4-yl)-3-(4-(methylsulfonamide)phenyl)acrylamide]		
0.29		770							0.22	O=C(Nc1cn(Cc2cc(F)c(F)c(F)c2)cn1)c1ccc(CO)cc1 [Example 175]		
0.06		610							0.07	COc1ccc(C(=O)Nc2cn(Cc3cc(F)cc(Cl)c3)cn2)cc1OC [Example 159]	particularly potent inhibitory effect	

SMILES	IC50 (HCT-116 cells [1]) [µmol/L]	IC50 (HT-29 cells [2]) [µmol/L]	IC50 (HCT-116 cells [3]) [nM]	IC50 (HT-29 cells [4]) [nM]	IC50 (HCT-116 cells [1]; Homo sapiens) [µmol/L]	IC50 (HT-29 cells [2]; Homo sapiens) [µmol/L]	IC50 (FaDu cells; Homo sapiens) [µmol/L]	IC50 (HCT-116 cells [3]; Homo sapiens, HCT-116, 96 h) [nM]	IC50 (HT-29 cells [4]; Homo sapiens, 96 h) [nM]	IC50 (FaDu cells) [µmol/L]	inhibitory effect on the sphere-forming ability of cancer cells (HCT-116 cells [1])	inhibitory effect on the sphere-forming ability of cancer cells (HCT-116 cells [3])
Cc1ccc2cc(NC(=O)c3cn(Cc4cc(F)c(F)c(F)c4)cn3)ccc2n1 [Example 252]	0.03	< 0.01	80	50							particularly potent inhibitory effect	particularly potent inhibitory effect
Cc1ccc2cc(NC(=O)c3cn(Cc4cccc(Cl)c4)cn3)ccc2n1 [Example 255, 1-(3-Chlorobenzyl)-N-(2-methylquinolin-6-yl)-1H-imidazole-4-carboxamide]					0.06	< 0.01		630	390		particularly potent inhibitory effect	
